Measured values as given in the NIST ThermoML archive (doi:10.1016/j.fluid.2012.06.028).

Experiment: xn = mol fraction of the nth substance listed
Details: Liquid, Vibrating tube method

CCCCCCCCCCCCCC [tetradecane] + CCCCCCCCCC
mass density [kg/m3]
Details	1000 kPa	2000 kPa	3000 kPa	4000 kPa	5000 kPa	6000 kPa	7000 kPa	8000 kPa	9000 kPa	10000 kPa
295 K, x2 = 0.5	746.3	–	747.6	748.3	749	749.7	–	751.1	751.7	–
295 K, x2 = 0.75	739.2	739.9	740.7	741.4	742.1	742.8	743.5	744.2	745	745.7
295.5 K, x2 = 0.25	753.2	753.9	754.6	755.3	756	756.7	757.4	758	758.7	759.4
